Assay results: patent publication US7879881B2, “Piperidinyl compounds that selectively bind integrins” (Janssen Pharmaceutica NV, priority 2002, dated 2011)
Like-named read-outs stand apart in the source and are kept apart here.

What was measured:
[1] = target: T1, Human αvβ3 (Homo sapiens, UniProt P05106+P06756); assay: In Vitro Solid Phase Purified αvβ3 Binding Assay (vitronectin/αvβ3); settings: vitronectin binding to immobilized purified human αvβ3, mean ± spread
T1 construct: purchased Chemicon International Inc., Temecula, Calif
T1 sequence (P06756 31-889 limits assumed): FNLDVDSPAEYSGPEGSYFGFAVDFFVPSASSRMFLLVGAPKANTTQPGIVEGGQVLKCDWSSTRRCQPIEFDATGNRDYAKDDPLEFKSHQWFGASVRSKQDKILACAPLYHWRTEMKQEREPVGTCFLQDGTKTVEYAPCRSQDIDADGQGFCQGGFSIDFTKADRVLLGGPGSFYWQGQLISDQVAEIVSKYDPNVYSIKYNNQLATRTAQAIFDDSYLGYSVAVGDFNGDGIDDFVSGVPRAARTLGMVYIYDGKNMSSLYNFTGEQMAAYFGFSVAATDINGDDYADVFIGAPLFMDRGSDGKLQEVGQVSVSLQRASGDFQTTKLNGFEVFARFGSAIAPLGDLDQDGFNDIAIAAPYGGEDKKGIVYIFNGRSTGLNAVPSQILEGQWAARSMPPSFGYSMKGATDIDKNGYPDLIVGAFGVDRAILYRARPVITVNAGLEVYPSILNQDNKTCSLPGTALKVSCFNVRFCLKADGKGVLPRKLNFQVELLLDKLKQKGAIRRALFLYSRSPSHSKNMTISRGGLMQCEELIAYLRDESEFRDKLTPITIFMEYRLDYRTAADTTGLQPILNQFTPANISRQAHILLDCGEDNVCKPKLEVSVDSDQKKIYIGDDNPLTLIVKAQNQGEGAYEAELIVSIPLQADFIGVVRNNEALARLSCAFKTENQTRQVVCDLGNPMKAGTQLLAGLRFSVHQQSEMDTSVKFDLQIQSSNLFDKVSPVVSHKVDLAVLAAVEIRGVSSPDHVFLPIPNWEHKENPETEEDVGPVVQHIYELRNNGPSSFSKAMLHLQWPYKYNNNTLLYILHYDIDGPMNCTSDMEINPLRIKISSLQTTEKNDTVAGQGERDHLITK
T1 sequence (P06756 891-1048 partner limits assumed): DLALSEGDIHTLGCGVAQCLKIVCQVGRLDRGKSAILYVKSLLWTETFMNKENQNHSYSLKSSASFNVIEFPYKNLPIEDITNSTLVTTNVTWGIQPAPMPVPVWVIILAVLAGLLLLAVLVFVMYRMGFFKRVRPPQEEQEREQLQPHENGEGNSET
T1 sequence (P05106 27-788): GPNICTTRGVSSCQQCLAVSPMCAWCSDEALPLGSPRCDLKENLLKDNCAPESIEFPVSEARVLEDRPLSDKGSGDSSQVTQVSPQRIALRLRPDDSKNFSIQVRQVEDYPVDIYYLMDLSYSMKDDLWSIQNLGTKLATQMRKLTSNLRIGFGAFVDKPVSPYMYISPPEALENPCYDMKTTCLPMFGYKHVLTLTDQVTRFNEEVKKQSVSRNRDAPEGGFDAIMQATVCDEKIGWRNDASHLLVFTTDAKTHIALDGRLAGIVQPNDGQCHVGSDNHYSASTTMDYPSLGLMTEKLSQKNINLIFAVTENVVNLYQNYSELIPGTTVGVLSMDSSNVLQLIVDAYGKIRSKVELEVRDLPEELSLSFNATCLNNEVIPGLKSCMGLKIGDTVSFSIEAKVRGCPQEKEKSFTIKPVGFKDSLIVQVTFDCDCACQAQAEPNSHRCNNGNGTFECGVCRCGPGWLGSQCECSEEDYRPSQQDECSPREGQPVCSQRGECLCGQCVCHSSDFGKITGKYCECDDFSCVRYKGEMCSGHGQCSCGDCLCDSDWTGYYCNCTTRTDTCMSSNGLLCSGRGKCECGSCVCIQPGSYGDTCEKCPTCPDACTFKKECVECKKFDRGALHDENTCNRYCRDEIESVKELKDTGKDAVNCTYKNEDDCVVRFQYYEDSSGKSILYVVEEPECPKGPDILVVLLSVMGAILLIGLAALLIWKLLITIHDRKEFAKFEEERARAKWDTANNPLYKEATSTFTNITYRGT
Experimental: In Vitro Solid Phase Purified αvβ3 Binding Assay
(§1) Human αvβ3 (Chemicon International Inc., Temecula, Calif.), at a concentration of 1 μg/ml dissolved in Tris buffer (20 mM Tris, 1 mM CaCl2, 1 mM MgCl2, 10 μM MnCl2, 150 mM NaCl), was immobilized on Immulon 96 well plates (Dynex Technologies, Chantilly, Va.) overnight at 4° C. Plates were washed and treated with blocking buffer (3% BSA in Tris buffer) for 2 h at 37° C. Plates were then rinsed 2 times with assay buffer comprised of Tris buffer. Synthesized compounds were added to wells in duplicate immediately prior to the addition of 2 nM vitronectin (Sigma, St. Louis, Mo.). Following a 3 hour incubation at 37° C., plates were washed 5 times in assay buffer. An anti-human vitronectin IgG rabbit polyclonal antibody (Calbiochem, San Diego, Calif.) was added (1:2000) and plates were incubated for 1 hour at room temperature. VectaStain ABC peroxidase kit reagents (Vector Laboratories, Burlingame, Calif.) employing a biotin labeled anti-rabbit IgG, were utilized for detection of bound antibody. Plates were read at 490 nm on a Molecular Devices (Sunnyvale, Calif.) microplate reader.

[2] = target: GP IIb/IIIa (Homo sapiens, UniProt P05106+P08514); assay: In Vitro Solid Phase Purified GP IIb/IIIa Binding Assay (biotinylated fibrinogen); settings: biotinylated fibrinogen binding to immobilized purified GP IIb/IIIa, mean ± spread
Chain of GP IIb/IIIa (P08514 32-887 limits assumed): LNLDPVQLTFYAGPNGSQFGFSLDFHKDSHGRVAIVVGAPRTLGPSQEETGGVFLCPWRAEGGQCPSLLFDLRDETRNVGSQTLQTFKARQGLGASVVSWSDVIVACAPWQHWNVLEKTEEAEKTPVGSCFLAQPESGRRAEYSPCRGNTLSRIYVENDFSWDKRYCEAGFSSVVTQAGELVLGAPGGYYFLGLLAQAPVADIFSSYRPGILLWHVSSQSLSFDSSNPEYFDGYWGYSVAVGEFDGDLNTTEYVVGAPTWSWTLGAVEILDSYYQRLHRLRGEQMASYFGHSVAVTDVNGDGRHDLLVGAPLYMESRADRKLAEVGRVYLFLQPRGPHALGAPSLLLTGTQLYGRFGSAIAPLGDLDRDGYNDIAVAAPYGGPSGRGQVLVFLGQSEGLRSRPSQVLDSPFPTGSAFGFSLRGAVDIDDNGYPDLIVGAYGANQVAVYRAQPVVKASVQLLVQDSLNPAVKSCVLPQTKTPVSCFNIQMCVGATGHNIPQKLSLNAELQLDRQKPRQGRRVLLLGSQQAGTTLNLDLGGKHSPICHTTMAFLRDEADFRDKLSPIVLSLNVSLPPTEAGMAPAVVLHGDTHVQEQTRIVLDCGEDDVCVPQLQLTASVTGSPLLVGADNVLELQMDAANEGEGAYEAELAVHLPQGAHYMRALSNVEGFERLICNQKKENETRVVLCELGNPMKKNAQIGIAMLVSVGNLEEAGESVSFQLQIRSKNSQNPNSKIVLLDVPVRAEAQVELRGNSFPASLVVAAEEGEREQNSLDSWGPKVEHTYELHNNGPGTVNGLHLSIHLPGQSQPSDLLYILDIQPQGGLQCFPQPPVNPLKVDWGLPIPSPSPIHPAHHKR
Chain of GP IIb/IIIa (P08514 891-1039 partner limits assumed): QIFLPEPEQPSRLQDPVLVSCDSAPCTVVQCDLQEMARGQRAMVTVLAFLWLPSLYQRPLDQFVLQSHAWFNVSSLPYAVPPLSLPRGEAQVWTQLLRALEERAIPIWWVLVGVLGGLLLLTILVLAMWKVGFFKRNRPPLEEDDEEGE
Chain of GP IIb/IIIa (P05106 27-788): as the sequence (P05106 27-788) above
Experimental: In Vitro Solid Phase Purified GP IIb/IIIa Binding Assay
The plate was covered and incubated overnight at 4° C. The GP IIb/IIIa solution was discarded and 150 μL of 5% BSA was added and incubated at RT for 1-3 h. The plate was washed extensively with modified Tyrodes buffer. Biotinylated fibrinogen (25 μL/well) at 2× final concentration was added to the wells that contain the test compounds (25 μL/well). The plate was covered and incubated at RT for 2-4 h. Twenty minutes prior to incubation completion, one drop of Reagent A (VectaStain ABC Horseradish Peroxidase kit, Vector Laboratories, Inc.) and one drop Reagent B were added with mixing to 5 mL modified Tyrodes buffer mix and let stand. The ligand solution was discarded and the plate washed (5×200 μL/well) with modified Tyrodes buffer. […] The Vecta Stain solution was discarded and the wells washed (5×200 μL/well) with modified Tyrodes buffer. Developing buffer (10 mL of 50 mM citrate/phosphate buffer @ pH 5.3, 6 mg o-phenylenediamine, 6 μL 30% H2O2; 50 μL/well) was added and incubated at RT for 3-5 min and then 2 N H2SO4 (50 μL/well) was added.

[3] = target: T2, human purified αVβ5 (Homo sapiens, UniProt P06756+P18084); assay: In Vitro Solid Phase Purified αcβ5 Binding Assay (vitronectin/αVβ5); settings: vitronectin binding to immobilized purified human αVβ5, mean ± spread
T2 construct: purchased Chemicon International, Inc
T2 sequence (P06756 31-889 limits assumed): as the sequence (P06756 31-889 limits assumed) above
T2 sequence (P06756 891-1048 partner limits assumed): as the sequence (P06756 891-1048 partner limits assumed) above
T2 sequence (P18084 24-799): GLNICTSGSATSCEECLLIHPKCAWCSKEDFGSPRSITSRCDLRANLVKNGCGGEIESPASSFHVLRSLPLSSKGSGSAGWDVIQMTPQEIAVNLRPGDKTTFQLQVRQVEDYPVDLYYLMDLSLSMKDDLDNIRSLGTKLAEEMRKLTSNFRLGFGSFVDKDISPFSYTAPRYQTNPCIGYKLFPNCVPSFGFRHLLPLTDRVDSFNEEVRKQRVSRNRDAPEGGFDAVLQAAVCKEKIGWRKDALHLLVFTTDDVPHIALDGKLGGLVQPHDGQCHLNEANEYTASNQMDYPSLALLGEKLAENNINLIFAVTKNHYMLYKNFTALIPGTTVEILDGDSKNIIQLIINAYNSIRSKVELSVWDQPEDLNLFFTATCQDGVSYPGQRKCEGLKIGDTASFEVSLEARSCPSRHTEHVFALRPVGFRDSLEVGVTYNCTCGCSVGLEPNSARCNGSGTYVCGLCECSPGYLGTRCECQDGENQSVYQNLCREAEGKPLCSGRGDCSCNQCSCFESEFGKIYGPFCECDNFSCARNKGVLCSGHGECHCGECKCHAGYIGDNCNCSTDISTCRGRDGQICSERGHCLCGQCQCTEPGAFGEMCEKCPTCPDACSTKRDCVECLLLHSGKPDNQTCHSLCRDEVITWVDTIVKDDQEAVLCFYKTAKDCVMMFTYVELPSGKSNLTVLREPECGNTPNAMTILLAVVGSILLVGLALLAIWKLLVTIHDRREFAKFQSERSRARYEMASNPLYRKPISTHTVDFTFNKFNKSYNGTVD
Experimental: as §1
In Vitro Solid Phase Purified αcβ5 Binding Assay
All other aspects of the assay including buffers, reagents and incubation times remain unchanged.

SMILES	IC50 ([1]; read-out: αvβ3IC50) [µM]	IC50 ([2]; read-out: αIIbβ3 IC50) [µM]	IC50 ([3]; read-out: αvβ5 IC50) [µM]	IC50 ([1]; αvβ3IC50 (uM)) [µM]	IC50 ([2]; αIIbβ3 IC50 (uM)) [µM]	IC50 ([3]; αvβ5 IC50 (uM)) [µM]
CC(C)(C)OC(=O)CCCC1CCN(C(=O)CCc2ccc3c(n2)NCCC3)CC1 [Cpd 70, 4-[1-(3-5,6,7,8-Tetrahydro-[1,8]naphthyridin-2-yl-propionyl)-piperidin-4-yl]-butyric acid tert-butyl ester]	> 0.5	> 50	> 1	–	–	–
COc1ccc(C(CC(=O)O)CC2CCN(C(=O)CCc3ccc4c(n3)NCCC4)CC2)cn1 (stereo not drawn) [Cpd 28, 6-methoxy-β-[[1-[1-oxo-3-(5,6,7,8-tetrahydro-1,8-naphthyridin-2-yl)propyl]-4-piperidinyl]methyl]-3-pyridinepropanoic acid]	–	–	–	0.0007 ± 0.0002	6.1 ± 2.44	0.0027 ± 0.0008
O=C(O)CC(CC1CCN(C(=O)CCc2ccc3c(n2)NCCC3)CC1)c1ccc2ccccc2c1 (stereo not drawn) [Cpd 56, β-(2-naphthalenyl)-1-[1-oxo-3-(5,6,7,8-tetrahydro-1,8-naphthyridin-2-yl)propyl]-4-piperidinebutanoic acid]	0.0019 ± 0.0006	39.1 ± 0.785	0.0245 ± 0.0065	–	–	–
COc1ncc(C(CC(=O)O)CC2CCN(C(=O)CCc3ccc4c(n3)NCCC4)CC2)c(OC)n1 (stereo not drawn) [Cpd 47, 2,4-dimethoxy-β-[[1-[1-oxo-3-(5,6,7,8-tetrahydro-1,8-naphthyridin-2-yl)propyl]-4-piperidinyl]methyl]-5-pyrimidinepropanoic acid]	0.0014 ± 0.0007	1.47 ± 0.37	0.0046 ± 0.0017	–	–	–
O=C(O)CC(CC1CCN(C(=O)CCc2ccc3c(n2)NCCC3)CC1)c1ccc(-c2ccccc2)c(F)c1 (stereo not drawn) [Cpd 41, β-(2-fluoro[1,1′-biphenyl]-4-yl)-1-[1-oxo-3-(5,6,7,8-tetrahydro-1,8-naphthyridin-2-yl)propyl]-4-piperidinebutanoic acid]	0.0018 ± 0.001	19.3 ± 2.6	0.873 ± 0.158	–	–	–
O=C(O)CC(CC1CCN(C(=O)CCCc2ccc3c(n2)NCCC3)CC1)c1cc(F)cc(F)c1 (stereo not drawn) [Cpd 38, β-(3,5-difluorophenyl)-1-[1-oxo-4-(5,6,7,8-tetrahydro-1,8-naphthyridin-2-yl)butyl]-4-piperidinebutanoic acid]	0.484	> 50	2.11	–	–	–

The next lines start with results.

IC50 ([1]; read-out: αvβ3IC50) [µM]	IC50 ([2]; read-out: αIIbβ3 IC50) [µM]	IC50 ([3]; read-out: αvβ5 IC50) [µM]	SMILES	IC50 ([1]; αvβ3IC50 (uM)) [µM]	IC50 ([2]; αIIbβ3 IC50 (uM)) [µM]	IC50 ([3]; αvβ5 IC50 (uM)) [µM]
0.0298 ± 0.0137	0.94 ± 0.05	0.138 ± 0.0415	O=C(O)CC(CCC1CCN(C(=O)c2cccc(NC3=NCCCC3)c2)CC1)c1ccc2c(c1)OCO2 (stereo not drawn) [Cpd 53, β-(1,3-benzodioxol-5-yl)-1-[3-[(3,4,5,6-tetrahydro-2-pyridinyl)amino]benzoyl]-4-piperidinepentanoic acid]	–	–	–
0.0361 ± 0.0001	5.04	0.108 ± 0.034	O=C(O)CC(c1ccc2c(c1)OCO2)C1CCN(C(=O)CCc2ccc3c(n2)NCCC3)CC1 (stereo not drawn) [Cpd 14, β-(1,3-benzodioxol-5-yl)-1-[1-oxo-3-(5,6,7,8-tetrahydro-1,8-naphthyridin-2-yl)propyl]-4-piperidinepropanoic acid]	–	–	–
0.142 ± 0.027	1.8	0.995	O=C(O)CC(CCC1CCN(C(=O)CCc2ccc3c(n2)NCCC3)CC1)c1ccc2c(c1)OCO2 (stereo not drawn) [Cpd 20, β-(1,3-benzodioxol-5-yl)-1-[1-oxo-3-(5,6,7,8-tetrahydro-1,8-naphthyridin-2-yl)propyl]-4-piperidinepentanoic acid]	–	–	–
0.0004	0.79 ± 0.05	0.0009 ± 0.0006	O=C(O)CC(CC1CCN(C(=O)CCc2ccc3c(n2)NCCC3)CC1)c1ccc2c(c1)OCC2 (single isomer, unassigned) [Cpd 36a, 3-(2,3-Dihydro-benzofuran-6-yl)-4-[1-(3-5,6,7,8-tetrahydro-[1,8]naphthyridin-2-yl-propionyl)-piperidin-4-yl]-butyric acid]	–	–	–
0.0005 ± 0.0002	14.7	0.0265 ± 0.0034	O=C(O)CC(CC1CCN(C(=O)CCc2ccc3c(n2)NCCC3)CC1)c1ccc2ccccc2c1 (single isomer, unassigned) [Cpd 56a, 3-Naphthalen-2-yl-4-[1-(3-5,6,7,8-tetrahydro-[1,8]naphthyridin-2-yl-propionyl)-piperidin-4-yl]-butyric acid]	–	–	–
